Values joined by “and” are separate entries in the source; they are usually repeats but may differ in a detail not shown here. Equal values may be shown once.

What is called Ki is a dissociation constant, usually derived from enzyme kinetics or from competition with a known ligand. In general, melting point refers to the temperature, or range, at which the solid turns liquid. As a reminder, the inhibition is the drop in the measured response relative to a control, in per cent.

Data set [1] concerns the target T1, phosphorylated VEGF-R2Δ50 (FLVK-P) (Homo sapiens, UniProt P35968, DEL940-989/E990V).
T1 construct: VEGF-R2Δ50 contains residues 806-939 and 990-1171; made in house; host or cells: baculovirus/insect cells
The experiment in a line: VEGF-R2 coupled spectrophotometric (FLVK-P) assay. The class given is biochemical. As to conditions: Table 2; spectrophotometric assay. A digest of the protocol:
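Baculovirus-expressed human VEGF-R2Δ50 (residues 806-939/990-1171, E990V) was autophosphorylated with 3 mM ATP, 40 mM MgCl2 for 2 h at 4° C. ADP formation was coupled via PK/LDH to NADH oxidation, read at 340 nm, with 5.1 mM poly(E4Y1), 1 mM ATP, 25 mM MgCl2, Hepes pH 7.5. Ki came from activity across compound concentrations.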

For data set [2], the target named is T2, FGF-R1 (Homo sapiens, UniProt P11362, C488A/C584S/L457V).
T2 construct: starting from the endogenous methionine residue 456 to glutamate 766; made in house; host or cells: baculovirus vector expression system
Nature of the data set: FGF-R spectrophotometric assay. As to conditions: Table 2. The class given is biochemical. An outline of the steps:
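Kinase domain (Met456–Glu766, baculovirus-expressed) used at 50 nM in a spectrophotometric assay run as for VEGF-R2. Substrates were 2 mM ATP and 15 mM poly(E4Y1).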

Data set [3] has as its target T3, LCK tyrosine kinase (Homo sapiens, UniProt P06239, C224D/P223M).
T3 construct: starting from amino acid residue 223 to the end of the protein at residue 509; made in house; host or cells: insect cells
Nature of the data set: LCK spectrophotometric assay. The format is biochemical. As to conditions: Table 2; for LCK % inhibition @ 1: at 1 (head μM). The protocol: LCK Construct for Assay: The LCK tyrosine kinase was expressed in insect cells as an N-terminal deletion starting from amino acid residue 223 to the end of the protein at residue 509, with the following two amino acid substitutions at the N-terminus: […] and C224D.
The spectrophotometric assay was carried out as described above for VEGF-R2, except for the following changes in concentration: LCK=60 nM, MgCl2=0 mM, poly(E4Y1)=20 mM.

Data set [4] addresses T4, FAKcd409 (Homo sapiens, UniProt Q05397, P410T).
T4 construct: comprises residues methionine 409 to glutamate 689; made in house; host or cells: baculovirus vector expression system
Nature of the data set: FAK HTS assay. The format is biochemical. As to conditions: 10 uM compound, HTS Delphia assay; 10 µM.

Data set [5] addresses T5, CHK1 (Homo sapiens, UniProt O14757).
T5 sequence (O14757 1-476): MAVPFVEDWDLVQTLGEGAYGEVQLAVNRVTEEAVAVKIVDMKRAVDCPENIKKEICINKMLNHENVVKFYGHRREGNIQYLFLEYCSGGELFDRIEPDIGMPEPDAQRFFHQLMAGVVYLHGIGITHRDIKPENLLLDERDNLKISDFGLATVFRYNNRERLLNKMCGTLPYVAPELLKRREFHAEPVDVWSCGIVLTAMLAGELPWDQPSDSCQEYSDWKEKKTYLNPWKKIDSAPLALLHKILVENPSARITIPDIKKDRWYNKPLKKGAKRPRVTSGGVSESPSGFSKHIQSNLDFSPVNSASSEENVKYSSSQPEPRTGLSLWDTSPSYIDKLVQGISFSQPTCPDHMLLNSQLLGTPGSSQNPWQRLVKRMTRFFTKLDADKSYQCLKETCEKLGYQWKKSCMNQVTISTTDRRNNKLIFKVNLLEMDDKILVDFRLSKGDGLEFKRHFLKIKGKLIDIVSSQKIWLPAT
Nature of the data set: CHK1 high-throughput screening. The class given is biochemical. Conditions: read-out: % inhibition @ 20 μM, Table 4, repeated entries per example.

T3 sequence (P06239 223-509 P223M/C224D): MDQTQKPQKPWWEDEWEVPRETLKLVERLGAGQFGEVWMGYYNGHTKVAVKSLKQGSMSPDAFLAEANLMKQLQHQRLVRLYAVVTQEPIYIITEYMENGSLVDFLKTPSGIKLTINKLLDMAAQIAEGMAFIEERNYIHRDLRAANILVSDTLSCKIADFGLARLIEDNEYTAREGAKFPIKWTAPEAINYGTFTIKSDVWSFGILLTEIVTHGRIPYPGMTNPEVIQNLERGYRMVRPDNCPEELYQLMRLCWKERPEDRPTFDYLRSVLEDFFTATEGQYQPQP
T4 sequence (Q05397 409-689 P410T): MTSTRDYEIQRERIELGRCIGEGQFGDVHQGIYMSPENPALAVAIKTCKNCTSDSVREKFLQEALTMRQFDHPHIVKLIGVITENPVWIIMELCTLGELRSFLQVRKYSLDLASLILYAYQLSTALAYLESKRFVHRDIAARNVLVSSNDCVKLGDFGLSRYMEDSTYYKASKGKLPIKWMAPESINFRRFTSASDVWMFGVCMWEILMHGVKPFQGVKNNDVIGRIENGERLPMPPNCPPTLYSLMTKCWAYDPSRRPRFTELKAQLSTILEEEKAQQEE
T1 sequence (P35968 with tags, fused parts or gaps DEL940-989/E990V limits assumed): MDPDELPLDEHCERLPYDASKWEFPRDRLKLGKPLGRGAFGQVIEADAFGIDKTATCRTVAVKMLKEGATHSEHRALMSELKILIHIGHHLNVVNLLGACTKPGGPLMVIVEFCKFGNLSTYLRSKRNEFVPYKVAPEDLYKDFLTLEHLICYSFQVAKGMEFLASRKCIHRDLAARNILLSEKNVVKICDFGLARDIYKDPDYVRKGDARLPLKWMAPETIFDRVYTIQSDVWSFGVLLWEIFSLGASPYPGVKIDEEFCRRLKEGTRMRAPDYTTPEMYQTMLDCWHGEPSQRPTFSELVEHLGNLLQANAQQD
T2 sequence (P11362 456-766 L457V/C488A/C584S): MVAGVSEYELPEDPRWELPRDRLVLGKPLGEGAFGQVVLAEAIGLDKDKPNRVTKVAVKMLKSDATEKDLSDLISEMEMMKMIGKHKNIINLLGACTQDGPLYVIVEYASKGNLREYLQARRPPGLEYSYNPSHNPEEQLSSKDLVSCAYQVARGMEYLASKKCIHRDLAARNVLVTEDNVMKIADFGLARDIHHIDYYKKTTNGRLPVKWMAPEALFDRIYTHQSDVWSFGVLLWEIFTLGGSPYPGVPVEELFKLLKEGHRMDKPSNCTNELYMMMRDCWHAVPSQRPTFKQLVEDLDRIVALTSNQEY

Regarding `COc1cc(Nc2nc(N)c(-c3nc(-c4cccc(O)c4)cs3)s2)cc(OC)c1OC` [A(17), 3-[4′-Amino-2′-(3,4,5-trimethoxy-phenylamino)-[2,5′]bithiazolyl-4-yl]-phenol], the melting point was in the range of 226 to 230 °C. Besides, the affinity in data set [1] corresponds to a Ki of 3 nM. This molecule had a Ki in data set [2] of 2400 nM. In addition, in data set [3], the “LCK % inhibition @ 1” value came to 21% @.

`CCCNc1nc(N)c(-c2nc(-c3cccc(O)c3)cs2)s1` [A(29), 3-(4′-Amino-2′-propylamino-[2,5′]bithiazolyl-4-yl)-phenol] showed a Ki in data set [1] of 78 nM. Besides, in data set [3] (at 5 (head μM)), the “LCK % inhibition @ 5” value came to 10% @. In addition, in data set [4], the “% inhibition of FAK” value is −6% and −11% and −8%. Moreover, the inhibition at 20 µM in data set [5] came out at 7.1%.

The molecule `COc1cc(Nc2nc(N)c(-c3nc(-c4cccc(O)c4)no3)s2)cc(OC)c1OC` [K(1), 3-{5-[4-Amino-2-(3,4,5-trimethoxy-phenylamino)-thiazol-5-yl]-[1,2,4]oxadiazol-3-yl}-phenol] gave a Ki in data set [1] of 6 nM. Moreover, the “LCK % inhibition @ 1” value in data set [3] was determined as 42% @.
